Columns and labels:
Experiment in all cases: relative viability (nuclei count vs DMSO), 5 days (fraction); higher = more cells survive
[1] = test system: Calu-6
Summary of the method: (§1)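 Lung cancer cell lines in 1536-well plates were dosed by pin tool the day after seeding, either with one drug alone or with a fixed anchor-drug dose plus five library-drug doses (not always all listed) in √10 steps. After 5 days, cells were fixed and their nuclei stained in one step (final 0.05% Triton X-100, 1% formaldehyde, 1 ug/ml Hoechst), then counted on 4× images. Relative viability is the nuclei count in treated wells divided by that in vehicle wells. Values are medians of duplicate plates.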

[2] = test system: EBC-1
Summary of the method: as §1

[3] = test system: EKVX
Summary of the method: as §1

[4] = test system: A549
Summary of the method: as §1

[5] = test system: NCI-H1666
Summary of the method: as §1

[6] = test system: LC-2-ad
Summary of the method: as §1

[7] = test system: ChaGo-K-1
Summary of the method: as §1

[8] = test system: NCI-H1703
Summary of the method: as §1

[9] = test system: NCI-H1299
Summary of the method: as §1

[10] = test system: IA-LM
Summary of the method: as §1

## CCNC(=O)c1noc(-c2cc(C(C)C)c(O)cc2O)c1-c1ccc(CN2CCOCC2)cc1 [Luminespib] + C[C@@H](Oc1cc(-c2cnn(C3CCNCC3)c2)cnc1N)c1c(Cl)ccc(F)c1Cl [Crizotinib] (partner 1 µM)
[1]; first compound 0.002 µM
  relative viability: 0.793
[1]; first compound 0.006325 µM
  relative viability: 0.88
[1]; first compound 0.02 µM
  relative viability: 1.01
[1]; first compound 0.06325 µM
  relative viability: 0.109
[1]; first compound 0.2 µM
  relative viability: 0.097
[2]; first compound 0.002 µM
  relative viability: 0.196
[2]; first compound 0.006325 µM
  relative viability: 0.195
[2]; first compound 0.02 µM
  relative viability: 0.179
[2]; first compound 0.06325 µM
  relative viability: 0.173
[2]; first compound 0.2 µM
  relative viability: 0.165
[3]; first compound 0.002 µM
  relative viability: 0.985
[3]; first compound 0.006325 µM
  relative viability: 0.989
[3]; first compound 0.02 µM
  relative viability: 0.97
[3]; first compound 0.06325 µM
  relative viability: 0.472
[3]; first compound 0.2 µM
  relative viability: 0.218
[4]; first compound 0.002 µM
  relative viability: 0.861
[4]; first compound 0.006325 µM
  relative viability: 0.593
[4]; first compound 0.02 µM
  relative viability: 0.51
[4]; first compound 0.06325 µM
  relative viability: 0.0411
[4]; first compound 0.2 µM
  relative viability: 0.0426
[5]; first compound 0.002 µM
  relative viability: 1.04
[5]; first compound 0.006325 µM
  relative viability: 0.929
[5]; first compound 0.02 µM
  relative viability: 1.13
[5]; first compound 0.06325 µM
  relative viability: 1
[5]; first compound 0.2 µM
  relative viability: 0.756
[6]; first compound 0.002 µM
  relative viability: 0.48
[6]; first compound 0.006325 µM
  relative viability: 0.482
[6]; first compound 0.06325 µM
  relative viability: 0.289
[6]; first compound 0.2 µM
  relative viability: 0.262
[7]; first compound 0.002 µM
  relative viability: 1.23
[7]; first compound 0.02 µM
  relative viability: 1.01
[7]; first compound 0.06325 µM
  relative viability: 0.562
[7]; first compound 0.2 µM
  relative viability: 0.301
[8]; first compound 0.002 µM
  relative viability: 0.806
[8]; first compound 0.006325 µM
  relative viability: 0.653
[8]; first compound 0.02 µM
  relative viability: 0.367
[8]; first compound 0.06325 µM
  relative viability: 0.119
[8]; first compound 0.2 µM
  relative viability: 0.0858
[9]; first compound 0.002 µM
  relative viability: 0.953
[9]; first compound 0.006325 µM
  relative viability: 0.953
[9]; first compound 0.02 µM
  relative viability: 1.01
[9]; first compound 0.06325 µM
  relative viability: 0.915
[9]; first compound 0.2 µM
  relative viability: 0.229
[10]; first compound 0.002 µM
  relative viability: 0.753
[10]; first compound 0.006325 µM
  relative viability: 0.848
[10]; first compound 0.02 µM
  relative viability: 1
[10]; first compound 0.06325 µM
  relative viability: 0.0538
[10]; first compound 0.2 µM
  relative viability: 0.04

## Cc1cn(-c2cc(NC(=O)c3ccc(C)c(Nc4nccc(-c5cccnc5)n4)c3)cc(C(F)(F)F)c2)cn1 [Nilotinib] + C[C@@H](Oc1cc(-c2cnn(C3CCNCC3)c2)cnc1N)c1c(Cl)ccc(F)c1Cl [Crizotinib] (partner 1 µM)
[1]; first compound 0.001 µM
  relative viability: 0.677
[1]; first compound 0.003162 µM
  relative viability: 0.798
[1]; first compound 0.01 µM
  relative viability: 1.19
[1]; first compound 0.03162 µM
  relative viability: 0.548
[1]; first compound 0.1 µM
  relative viability: 0.637
[2]; first compound 0.001 µM
  relative viability: 0.216
[2]; first compound 0.003162 µM
  relative viability: 0.202
[2]; first compound 0.01 µM
  relative viability: 0.174
[2]; first compound 0.03162 µM
  relative viability: 0.157
[2]; first compound 0.1 µM
  relative viability: 0.164
[3]; first compound 0.001 µM
  relative viability: 0.812
[3]; first compound 0.003162 µM
  relative viability: 1.39
[3]; first compound 0.01 µM
  relative viability: 1.42
[3]; first compound 0.03162 µM
  relative viability: 0.809
[3]; first compound 0.1 µM
  relative viability: 1.13
[4]; first compound 0.001 µM
  relative viability: 0.916
[4]; first compound 0.003162 µM
  relative viability: 0.976
[4]; first compound 0.01 µM
  relative viability: 1.09
[4]; first compound 0.03162 µM
  relative viability: 0.501
[4]; first compound 0.1 µM
  relative viability: 0.547
[5]; first compound 0.001 µM
  relative viability: 0.826
[5]; first compound 0.003162 µM
  relative viability: 0.983
[5]; first compound 0.01 µM
  relative viability: 0.964
[5]; first compound 0.03162 µM
  relative viability: 0.936
[5]; first compound 0.1 µM
  relative viability: 1.11
[6]; first compound 0.001 µM
  relative viability: 0.43
[6]; first compound 0.003162 µM
  relative viability: 0.436
[6]; first compound 0.01 µM
  relative viability: 0.449
[6]; first compound 0.03162 µM
  relative viability: 0.42
[6]; first compound 0.1 µM
  relative viability: 0.522
[7]; first compound 0.001 µM
  relative viability: 1.1
[7]; first compound 0.003162 µM
  relative viability: 1.08
[7]; first compound 0.01 µM
  relative viability: 1.27
[7]; first compound 0.03162 µM
  relative viability: 0.674
[7]; first compound 0.1 µM
  relative viability: 1.08
[8]; first compound 0.003162 µM
  relative viability: 0.403
[8]; first compound 0.01 µM
  relative viability: 0.291
[8]; first compound 0.03162 µM
  relative viability: 0.191
[8]; first compound 0.1 µM
  relative viability: 0.175
[9]; first compound 0.001 µM
  relative viability: 0.925
[9]; first compound 0.003162 µM
  relative viability: 1.01
[9]; first compound 0.01 µM
  relative viability: 1.07
[9]; first compound 0.03162 µM
  relative viability: 0.918
[9]; first compound 0.1 µM
  relative viability: 0.969
[10]; first compound 0.003162 µM
  relative viability: 0.77
[10]; first compound 0.01 µM
  relative viability: 0.835
[10]; first compound 0.03162 µM
  relative viability: 0.637
[10]; first compound 0.1 µM
  relative viability: 0.659
